Laboratory results: patent publication US20110152267A1, “Compositions and Methods for Treating Hyperproliferative Disorders” (Texas Tech University System, priority 2009, published 2011)

Columns and labels:
Type in all cases: cell-based, human
[1] = test system: U-266 Multiple Myeloma cell line; test: DIMSCAN cytotoxicity, fenretinide + L-threo-sphinganines 3:1 (Example B3); conditions: 96 h
Method: (§1) Cytotoxicity Assay—Once again, cytotoxicity is determined using the DIMSCAN assay system (R. Proffitt et al., Cytometry 24, 204-213 (1996); T. Frgala et al., Mol Cancer Ther. 6:886-97, 2007). The system employs digital imaging microscopy to quantify viable cells, which selectively accumulate fluorescein diacetate to become brightly fluorescent. The system is capable of measuring cytotoxicity over a 4-5 log dynamic range by quenching the residual fluorescence of dead and dying cells with eosin Y and quantifying the total fluorescence of viable cells using digital thresholding. Measured fluorescence is directly proportionate to the number of viable cells. A comparison of the total fluorescence of a drug-treated cell population to the fluorescence of a similar number of untreated cells yields a survival fraction. In brief, 2000 to 10,000 cells/well (depending on size and growth rates) are replicate plated into 60 wells of a 96-well tissue culture plate in 0.1 mL of whole medium and allowed to attach overnight. Drug(s) are then added in 0.05 mL of whole medium to the final concentrations indicated. Drugs (fenretinide, and various chain length L-threo-sphinganines) were tested both as single agents and in a 3:1 ratio of fenretinide:sphinganine. C18-L-threo-sphinganine, or “safingol,” was also tested and results shown for reference. There are 12 wells treated per drug concentration. Twelve wells receive drug vehicle-only to the appropriate final concentration and serve as controls for the plate. Cells are incubated for 96 hours at 37° C. in ambient air with 5% CO2. Fluorescein diacetate is then added to each well in 0.05 mL media to a final concentration of 8 microgram/mL. Cells are incubated for a further 15 minutes at 37° C. and 0.03 mL of 0.5% eosin Y is added to each well. Total fluorescence of viable cells is then measured by digital imaging microscopy. Results were graphed as the ratio of the fluoresecence of drug-treated wells to non-drug treated control wells (i.e., Survival Fraction). All tests were performed at least twice. Representative results are shown.
(§2) The Combination Index (CI) is a term to describe mathematical modeling of the pharmacologic effects on cytotoxicity (cell death) of two drugs in combination based. Cytotoxic “synergy” is defined as a cell death affect which is greater than would be expected from a simple product of the single agent cytotoxicities alone (i.e. an “additive” effect). By Chou-Talalay analysis, a CI<0.9 on a Fraction Affected (“Fa”, i.e. fraction of cells killed) indicates synergy, with smaller numbers indicating greater synergy; a CI of 0.9-1.1 signifies an additive or near-additive effect; and a CI>1.1 means the drug combination is antagonistic.
Fenretinide and L-threo-sphinganines tested in human Multiple Myeloma (a cancer of the blood and bone marrow) cell line, U-266.

[2] = test system: A-172 Glioblastoma multiforme cell line; test: DIMSCAN cytotoxicity, fenretinide + L-threo-sphinganines 3:1 (Example B4); parameters: key to CI (Combination Index): Chou-Talalay CI: <0.9 synergy, 0.9-1.1 additive, >1.1 antagonism; conditions: 96 h
Method: as §1, §2
Fenretinide and L-threo-sphinganines tested in human Glioblastoma multiforme (brain cancer) cell line, A-172.

[3] = test system: SJ-GBM2 Glioblastoma multiforme cell line; test: DIMSCAN cytotoxicity, fenretinide + L-threo-sphinganines 3:1 (Example B7); parameters: key to CI (Combination Index): Chou-Talalay CI: <0.9 synergy, 0.9-1.1 additive, >1.1 antagonism; conditions: 96 h
Method: as §1, §2
Fenretinide and L-threo-sphinganines tested in human Glioblastoma multiforme (brain cancer) cell line, SJ-GBM2.

[4] = test system: OVCAR-8 ovarian adenocarcinoma cell line; test: DIMSCAN cytotoxicity, fenretinide + L-threo-sphinganines 3:1 (Example B15); parameters: key to CI (Combination Index): Chou-Talalay CI: <0.9 synergy, 0.9-1.1 additive, >1.1 antagonism; conditions: 96 h
Method: as §1, §2
Fenretinide and L-threo-sphinganines tested in human ovarian adenocarcinoma (ovarian cancer) cell line, OVCAR-8.

[5] = test system: PANC-1 pancreatic adenocarcinoma cell line; test: DIMSCAN cytotoxicity, fenretinide + L-threo-sphinganines 3:1 (Example B18)
Method: as §1, §2
Fenretinide and L-threo-sphinganines tested in human pancreatic adenocarcinoma (pancreas cancer) cell line, PANC-1.

[6] = 4-HPR 1.5 μM + L-threo-sphinganine 0.5 μM
[7] = 4-HPR 3 μM + L-threo-sphinganine 1 μM
[8] = 4-HPR 6 μM + L-threo-sphinganine 2 μM
[9] = 4-HPR 9 μM + L-threo-sphinganine 3 μM

SMILES	CI (Combination Index) [1, 6]	Fa (fraction affected) [1, 6]	CI (Combination Index) [1, 7]	Fa (fraction affected) [1, 7]	CI (Combination Index) [1, 8]	Fa (fraction affected) [1, 8]	CI (Combination Index) [1, 9]	Fa (fraction affected) [1, 9]	CI (Combination Index) [2, 6]	Fa (fraction affected) [2, 6]	CI (Combination Index) [2, 7]	Fa (fraction affected) [2, 7]	CI (Combination Index) [2, 8]	Fa (fraction affected) [2, 8]	CI (Combination Index) [2, 9]	Fa (fraction affected) [2, 9]	CI (Combination Index) [3, 6]	Fa (fraction affected) [3, 6]	CI (Combination Index) [3, 7]	Fa (fraction affected) [3, 7]	further results
CCCCCCCCCCCCCCCCCC[C@H](O)[C@@H](N)CO [C21]	1.4	0.225	1.5	0.658	0.6	0.996	>0.1	1	8.8	0.006	1.6	0.537	0.8	0.996	>0.1	1.000	1.4	0.131	1.9	0.470	CI (Combination Index) [3, 8]: 2.1; Fa (fraction affected) [3, 8]: 0.946; CI (Combination Index) [3, 9]: 2.0; Fa (fraction affected) [3, 9]: 0.996; CI (Combination Index) [4, 6]: 0.1; Fa (fraction affected) [4, 6]: 0.626; CI (Combination Index) [4, 7]: 0.1; Fa (fraction affected) [4, 7]: 0.870; CI (Combination Index) [4, 8]: 0.1; Fa (fraction affected) [4, 8]: 0.977; CI (Combination Index) [4, 9]: 0.2; Fa (fraction affected) [4, 9]: 0.975; CI [5, 6]: 2.5; Fa [5, 6]: 0.111; CI [5, 7]: 2.9; Fa [5, 7]: 0.239; CI [5, 8]: 1.6; Fa [5, 8]: 0.784; CI [5, 9]: 0.4; Fa [5, 9]: 0.994
CCCCCCCCCCCC[C@H](O)[C@@H](N)CO [C15]	1.2	0.085	1.5	0.241	1.2	0.697	0.9	0.929	23.7	0.001	1.4	0.378	0.4	0.991	0.4	0.998	1.7	0.086	1.1	0.301	CI (Combination Index) [3, 8]: 0.9; Fa (fraction affected) [3, 8]: 0.765; CI (Combination Index) [3, 9]: 1.0; Fa (fraction affected) [3, 9]: 0.953; CI (Combination Index) [4, 6]: 0.1; Fa (fraction affected) [4, 6]: 0.668; CI (Combination Index) [4, 7]: 0.1; Fa (fraction affected) [4, 7]: 0.854; CI (Combination Index) [4, 8]: 0.1; Fa (fraction affected) [4, 8]: 0.977; CI (Combination Index) [4, 9]: 0.2; Fa (fraction affected) [4, 9]: 0.977; CI [5, 6]: 2.9; Fa [5, 6]: 0.078; CI [5, 7]: 2.2; Fa [5, 7]: 0.205; CI [5, 8]: 1.7; Fa [5, 8]: 0.486; CI [5, 9]: 0.2; Fa [5, 9]: 0.978
CCCCCCCCCCC[C@H](O)[C@@H](N)CO [C14]	0.9	0.163	1.1	0.315	1.0	0.687	1.3	0.76	23.7	0.001	3.8	0.065	1.0	0.717	0.5	0.958	5.0	0.007	1.2	0.209	CI (Combination Index) [3, 8]: 1.2; Fa (fraction affected) [3, 8]: 0.598; CI (Combination Index) [3, 9]: 1.4; Fa (fraction affected) [3, 9]: 0.820; CI (Combination Index) [4, 6]: 0.1; Fa (fraction affected) [4, 6]: 0.696; CI (Combination Index) [4, 7]: 0.1; Fa (fraction affected) [4, 7]: 0.860; CI (Combination Index) [4, 8]: 0.1; Fa (fraction affected) [4, 8]: 0.978; CI (Combination Index) [4, 9]: 0.1; Fa (fraction affected) [4, 9]: 0.988; CI [5, 6]: 3.2; Fa [5, 6]: 0.054; CI [5, 7]: 2.6; Fa [5, 7]: 0.176; CI [5, 8]: 2.1; Fa [5, 8]: 0.450; CI [5, 9]: 0.7; Fa [5, 9]: 0.883
